Laboratory results as given in US7091033B2, “Array of toxicologically relevant canine genes and uses thereof” (Phase-1 Molecular Toxicology, Inc., priority 2000, dated 2006).

Tested on: canine genes differentially expressed in organs (liver, spleen, kidney, testes, heart, thymus)
Test: Transcriptome profiling / differential display of tissues from canines exposed to an agent versus vehicle (reverse transcription, PCR, reamplification of bands, sequencing)
Type: in vivo
[1] = Band # CTP1D, No significant match
[2] = Band # CTP1G, No significant match
[3] = Band # CTP74A, No significant match
[4] = Band # CTP75C, No significant match
[5] = Band # CTP85D, Homo sapiens Rho-assoc XM_008814

For `COc1cc([C@@H]2c3cc4c(cc3[C@@H](O[C@@H]3O[C@@H]5CO[C@@H](C)O[C@H]5[C@H](O)[C@H]3O)[C@H]3COC(=O)[C@H]23)OCO4)cc(OC)c1O` [Etoposide], the “Expression Pattern” value [1] was “upregulated with Etoposide, caffeine”, the “Expression Pattern” value [2] was “upregulated with Etoposide, caffeine” and the “Expression Pattern” value (Band # CTP7B, No significant match) was “upregulated in Etoposide treated”. The “Expression Pattern” value (Band # CTP8A, No significant match) was “repressed in Etoposide treated”, the “Expression Pattern” value (Band # CTP8C, Human DNA sequence fn HSJ734P14) was “repressed in Etoposide treated” and the “Expression Pattern” value (Band # CTP10Y, Canis familiaris mitochon CFU96639) was “upregulated in Etoposide treated”. For the same compound, the “Expression Pattern” value (Band # CTP11A, cyclin-dependent kinase i BC001935) was “upregulated in Etoposide treated”, the “Expression Pattern” value (Band # CTP16B, Homo sapiens cDNA FLJAK000548) was “repressed in Etoposide treated” and the “Expression Pattern” value (Band # CTP17G, No significant match) was “repressed in Etoposide treated”. For the same compound, the “Expression Pattern” value (Band # CTP18B, No significant match) was “upregulated in Etoposide treated”, the “Expression Pattern” value (Band # CTP19F, Homo sapiens chromosor AC008651) was “upregulated in Etoposide treated” and the “Expression Pattern” value (Band # CTP34A, Homo sapiens ribosomal NM_001032) was “repressed in Etoposide”.
With `CC(=O)Oc1ccccc1C(=O)O` [aspirin] the “Expression Pattern” value [1] was “upregulated with Etoposide, caffeine”, the “Expression Pattern” value [2] was “upregulated with Etoposide, caffeine” and the “Expression Pattern” value (Band # CTP3B, Homo Sapien N-myc dow BC003175, larger band of doublet) was “doublet-larger band is upregulated”. For the same compound, the “Expression Pattern” value (Band # CTP25D, No significant match) was “repressed with caffeine and aspirin”, the “Expression Pattern” value (Band # CTP26A, Canis familiaris chymase U89607) was “repressed with caffeine and aspirin” and the “Expression Pattern” value (Band # CTP26B, H. sapiens cycA gene for X68303) was “repressed with caffeine and aspirin”. For the same compound, the “Expression Pattern” value (Band # CTP27C, Homo sapiens CTCL turn AF177227) was “repressed with etoposide and aspirin”, the “Expression Pattern” value (Band # CTP32D, cDNA FLJ14795 fls, clone AK027701) was “repressed with caffeine and aspirin” and the “Expression Pattern” value (Band # CTP144B, No significant match) was “repressed with caffeine and aspirin”. For the same compound, the “Expression Pattern” value (Band # CTP145B, No significant match) was “repressed with aspirin”, the “Expression Pattern” value (Band # CTP148B, Homo sapiens serine-thre AF108830) was “induced with aspirin” and the “Expression Pattern” value (Band # CTP161B, Canis familiaris TCTA ger AJ012166) was “induced with aspirin”. For the same compound, the “Expression Pattern” value (Band # CTP164A, No significant match) was “induced with aspirin”, the “Expression Pattern” value (Band # CTP215B, No significant match) was “induced with aspirin” and the “Expression Pattern” value (Band # CTP222D, No significant match) was “induced with aspirin”.
In the case of `N.N.O=C([O-])C1(C(=O)[O-])CCC1.[Pt+2]` [carboplatin], the “Expression Pattern” value (Band # CTP28D, Homo sapiens upstream INM_014517) is reported as “repressed in carboplatin”, the “Expression Pattern” value (Band # CTP30E, Homo sapiens BAC clone AC003083) is reported as “repressed in carboplatin” and the “Expression Pattern” value (Band # CTP58A, No significant match) is reported as “repressed with carboplatin”. The “Expression Pattern” value (Band # CTP60B, Homo sapiens RNA bindii XM_016120) was “repressed with carbo and trans platin”, the “Expression Pattern” value (Band # CTP65A, Pig mRNA for endoplasm X16951) was “repressed with carbo and trans platin” and the “Expression Pattern” value (Band # CTP71A, Canis familiaris caveolin- U47060) was “induced with carboplatin”. The “Expression Pattern” value [3] was “repressed with carbo, trans and cisplatin”, the “Expression Pattern” value [4] was “repressed with carbo, trans and cisplatin” and the “Expression Pattern” value [5] was “repressed with carbo, trans and cisplatin”. The “Expression Pattern” value (Band # CTP122I, Human mRNA for KIAA0(D26067)) was “repressed with carbo and transplatin”, the “Expression Pattern” value (Band # CTP178B, Homo sapiens mRNA for AB040957) was “induced with carboplatin” and the “Expression Pattern” value (Band # CTP179K, No significant match) was “induced with carboplatin”. The “Expression Pattern” value (Band # CTP185C, No significant match) was “induced with carbo and trans platin”, the “Expression Pattern” value (Band # CTP197A, No significant match) was “induced with carboplatin” and the “Expression Pattern” value (Band # CTP201B, Homo sapiens, exostoses BC001174) was “induced with carboplatin”. For the same compound, the “Expression Pattern” value (Band # CTP202C, No significant match) was “induced with carboplatin”, the “Expression Pattern” value (Band # CTP205D, Homo sapiens similar to XM_011187) was “induced with carboplatin” and the “Expression Pattern” value (Band # CTP206A, Homo sapiens fatty acid c NM_013402) was “repressed with carbo and transplatin”. For the same compound, the “Expression Pattern” value (dog, in vivo) was “repressed with carbo and trans platin”.
In the case of `N.N.[Cl][Pt][Cl]` [cisplatin], the “Expression Pattern” value (Band # CTP31A, No significant match) is reported as “upregulated in cisplatin”, the “Expression Pattern” value (Band # CTP41B, Homo sapiens mRNA for AB037813) is reported as “repressed in cisplatin” and the “Expression Pattern” value (Band # CTP47G, No significant match) is reported as “induced with cisplatin”. The “Expression Pattern” value (Band # CTP50A, No significant match) was “induced with cisplatin”, the “Expression Pattern” value (Band # CTP51A, Homo sapiens intestinal 1 AF219991) was “induced with cisplatin” and the “Expression Pattern” value (Band # CTP52B, No significant match) was “induced with cisplatin”. The “Expression Pattern” value (Band # CTP53A, No significant match) was “induced with cisplatin”, the “Expression Pattern” value (Band # CTP59A, Homo sapiens cyclin D2 (XM_012143)) was “induced with cisplatin” and the “Expression Pattern” value (Band # CTP62A, No significant match) was “induced with cisplatin”. For the same compound, the “Expression Pattern” value (Band # CTP63A, No significant match) was “induced with cisplatin”, the “Expression Pattern” value (Band # CTP64B, No significant match) was “induced with cisplatin” and the “Expression Pattern” value (Band # CTP67A, clone RP5-1071L10 on cl AL133228) was “repressed with cisplatin”. For the same compound, the “Expression Pattern” value (Band # CTP68F, Oryctolagus cuniculus Ne U09823) was “repressed with cisplatin”, the “Expression Pattern” value (Band # CTP70A, No significant match) was “repressed with cisplatin” and the “Expression Pattern” value (Band # CTP72B, No significant match) was “repressed with cisplatin”. For the same compound, the “Expression Pattern” value (Band # CTP73A, Homo sapiens chromosor AC026201) was “repressed with cisplatin”, the “Expression Pattern” value (Band # CTP73B, No significant match) was “repressed with cisplatin” and the “Expression Pattern” value [3] was “repressed with carbo, trans and cisplatin”. The “Expression Pattern” value [4] was “repressed with carbo, trans and cisplatin”, the “Expression Pattern” value (Band # CTP76B, No significant match) was “induced with cisplatin” and the “Expression Pattern” value (Band # CTP77D, No significant match) was “repressed with cisplatin”. The “Expression Pattern” value (Band # CTP78B, Homo sapiens SON DNA XM_009738) was “induced with cisplatin”, the “Expression Pattern” value (Band # CTP79B, No significant match) was “induced with cisplatin” and the “Expression Pattern” value (Band # CTP80A, Homo sapiens WDR4 ger AB039887) was “repressed with cisplatin”. The “Expression Pattern” value (Band # CTP81A, No significant match) was “induced with cisplatin”, the “Expression Pattern” value [5] was “repressed with carbo, trans and cisplatin” and the “Expression Pattern” value (Band # CTP86F, Homo sapiens chromodoi NM_001272) was “induced with cisplatin”. For the same compound, the “Expression Pattern” value (Band # CTP87B, Homo sapiens tetratricopi XM_009760) was “induced with cisplatin”, the “Expression Pattern” value (Band # CTP88A, Rattus norvegicus ribosor NM_022506) was “repressed with cisplatin” and the “Expression Pattern” value (Band # CTP89B, Homo sapiens genomic [AP003473) was “induced with cisplatin”. The “Expression Pattern” value (Band # CTP90A, Homo sapiens clone 248(AF070622)) was “induced with cisplatin”, the “Expression Pattern” value (Band # CTP92A, No significant match) was “induced with cisplatin” and the “Expression Pattern” value (Band # CTP92C, Human DNA sequence fn AL133286) was “induced with cisplatin”. For the same compound, the “Expression Pattern” value (Band # CTP93F, clone RP1-211D12 on ch Z93016) was “induced with cisplatin”, the “Expression Pattern” value (Band # CTP94B, Homo sapiens clathrin, h NM_008305) was “induced with cisplatin” and the “Expression Pattern” value (Band # CTP99A, No significant match) was “repressed with cisplatin”. For the same compound, the “Expression Pattern” value (Band # CTP100A, COX15 (yeast) homolog, BC002382) was “induced with cisplatin”, the “Expression Pattern” value (Band # CTP103JJ, No significant match) was “induced with cisplatin” and the “Expression Pattern” value (Band # CTP104I, No significant match) was “repressed with cisplatin”. The “Expression Pattern” value (Band # CTP109P, No significant match) was “induced with cisplatin”, the “Expression Pattern” value (Band # CTP110A, No significant match) was “induced with cisplatin” and the “Expression Pattern” value (Band # CTP111A, No significant match) was “induced with cisplatin”. For the same compound, the “Expression Pattern” value (Band # CTP112B, Bos taurus peroxiredoxin AF305561) was “induced with cisplatin”, the “Expression Pattern” value (Band # CTP113A, Box taurus ribosomal proi AF063243) was “induced with cisplatin” and the “Expression Pattern” value (Band # CTP115B, Homo sapiens chromosoi AC005899) was “induced with cisplatin”. For the same compound, the “Expression Pattern” value (Band # CTP116A, No significant match) was “induced with cisplatin”, the “Expression Pattern” value (Band # CTP117B, Homo sapiens similar to XM_017740) was “induced with cisplatin” and the “Expression Pattern” value (Band # CTP119J, H. sapiens SPR-2 mRNA 1X68560 S52) was “induced with cisplatin”. For the same compound, the “Expression Pattern” value (Band # CTP121D, Human ribosomal protein U43701) was “induced with cisplatin”, the “Expression Pattern” value (Band # CTP124B, No significant match) was “induced with cisplatin” and the “Expression Pattern” value (Band # CTP126A, No significant match) was “induced with cisplatin”. The “Expression Pattern” value (Band # CTP131B, Homo sapiens similar to s XM_006087) was “induced with cisplatin”, the “Expression Pattern” value (Band # CTP133B, No significant match) was “induced with cisplatin” and the “Expression Pattern” value (Band # CTP134A, No significant match) was “induced with cisplatin”. The “Expression Pattern” value (Band # CTP135A, Homo sapiens cDNA FLJAK021570) was “induced with cisplatin”, the “Expression Pattern” value (Band # CTP300B, Homo sapiens utrophin (I-NM_007124)) was “repressed with cisplatin” and the “Expression Pattern” value (Band # CTP304B, Homo sapiens unknov XM_002211) was “induced with cisplatin”. For the same compound, the “Expression Pattern” value (Band # CTP306B, No significant match) was “induced with cisplatin”, the “Expression Pattern” value (Band # CTP308KK, No significant match) was “induced with cisplatin” and the “Expression Pattern” value (Band # CTP309A, No significant match) was “repressed with cisplatin”.
